Values after ≈ are worked out from the molar mass of the structure shown. Like-named read-outs stand apart in the source and are kept apart here.
Key:
[1] = tested on: Cryptococcus neoformans ATCC 36556; assay: In vitro susceptibility, microdilution broth MIC, C. neoformans; type: cell-based; settings: ATCC36556, 48 h
Method: (§1) MIC tests were performed by a microdilution broth assay. The fungi tested were Candida albicans ATCC 10259 and strain B311, Cryptococcus neoformans ATCC 36556, Aspergillus fumigatus ATCC 13073, and Trichophyton rubrum ATCC 18762. The yeasts were propagated on yeast morphology agar, while the filamentous fungi were grown on Sabouraud's agar. All tests were performed in Sabouraud's broth in 96-well microliter plates, with compounds diluted serially, then inoculated with 2×10^4 cfu/ml for C. albicans, 4×10^4 cfu/ml for C. neoformans, 1×10^3 cfu/ml for A. fumigatus, and 1×10^3 cfu/ml for T. rubrum (all expressed as final concentrations). Plates were incubated at 30° C. for 48 h for all fungi except T. rubrum, which was incubated for 5 days. MIC's were read as the lowest concentration completely inhibiting growth. After MIC endpoints were determined, 50 ul portions were removed and plated on yeast morphology agar to detect viable organisms, and were incubated at 30° C. for 48 h. The MFC was determined to be the well with the lowest concentration resulting in no growth.

[2] = tested on: Aspergillus fumigatus ATCC 13073; assay: In vitro susceptibility, microdilution broth MIC, A. fumigatus; type: cell-based; settings: ATCC13073, 48 h
Method: as §1

[3] = tested on: Candida albicans ATCC 10259; assay: In vitro susceptibility, microdilution broth MIC, C. albicans ATCC 10259; type: cell-based; settings: ATCC10259, 48 h
Method: as §1

fungi = assay: In vitro susceptibility tests (MIC and MFC), overall statements; type: cell-based; settings: Candida, Cryptococcus, Aspergillus, medically important fungi
Method: as §1

[4] = tested on: Trichophyton rubrum ATCC 18762; assay: In vitro susceptibility, microdilution broth MIC, T. rubrum; type: cell-based; settings: ATCC18762, 120 h, Table 1a, Sabouraud's broth, 30° C., 5 days
Method: as §1

[5] = tested on: Candida albicans ATCC 10259; assay: Minimum fungicidal concentration (MFC), C. albicans ATCC 10259; type: cell-based; settings: ATCC10259, 48 h, read-out: MIC (as headed), C. albicans 10259 (MFC)
Method: as §1

[6] = tested on: Candida albicans strain B311; assay: In vitro susceptibility, microdilution broth MIC, C. albicans B311; type: cell-based; settings: Table 1a, Sabouraud's broth, 30° C., 48 h
Method: as §1

[7] = tested on: Candida albicans strain B311; assay: Minimum fungicidal concentration (MFC), C. albicans B311; type: cell-based; settings: B311, 48 h, Table 1a, seventh value column, read-out: MIC (as headed), C. albicans B311 (MFC)
Method: as §1

ICR mice = assay: Systemic toxicology test in ICR mice, intraperitoneal; type: in vivo; settings: three consecutive days
Method: (§2) Thiarubrine A and the novel 3,6-bis(hydroxymethyl)-1,2-dithiin have also been evaluated for their systemic toxicity potential. ICR mice, in groups of five or six each were injected with solutions of the test compound given intraperitoneally for three consecutive days for thiarubrine A and five consecutive days for the 1,2-dithiin. Animals were weighed daily and observed for mortalities over a 14 day period. An LD50 of 0.6 mg/kg for thiarubrine A was determined.

[8] = as above; type: in vivo; settings: mouse, in vivo, ip
Method: as §2

[9] = tested on: dermal irritation and erythema, ear of ICR mice; assay: Dermal toxicology (irritation) test in ICR mice; type: in vivo; settings: 10 mg topically
Method: Thiarubrine A and a new 1,2-dithiin compound 3,6-bis(hydroxymethyl)-1,2-dithiin were tested for the ability to elicit dermal irritation in ICR mice. Animals in groups of five each were lightly anesthetized, then the test substance, previously dissolved in aquaphor, was applied in the amount of 10 mg topically to the dorsal aspect of the right ear. Aquaphor without test substance was applied to the left ear as a control. Animals were inspected daily for five days for signs of dermal irritation and erythema, which was scored subjectively on a scale from 1 to 15, with 15 indicating severe toxicity.

[10] = isolated from Aspilia mossambicesis and A. plurisetta; literature; cited from earlier work
[11] = Table 1a, Sabouraud's broth, 30° C., read-out: MIC C. neoformans
[12] = Table 1b, Sabouraud's broth, 30° C., read-out: MIC C. neoformans
[13] = Table 1a, Sabouraud's broth, 30° C., read-out: MIC A. fumigatus
[14] = Table 1b, Sabouraud's broth, 30° C., read-out: MIC A. fumigatus
[15] = Table 1a, Sabouraud's broth, 30° C., read-out: MIC C. albicans 10259
[16] = Table 1b, Sabouraud's broth, 30° C., read-out: MIC C. albicans 10259

| SMILES | MIC [1, 11] | MIC [1, 12] | MIC [2, 13] | MIC [2, 14] | MIC [3, 15] | MIC [3, 16] | MFC ([5]; Table 1a) | further results |
| --- | --- | --- | --- | --- | --- | --- | --- | --- |
| OCC1=CC=C(CO)SS1 [Dithiin A, 3,6-Bis(hydroxymethyl)-1,2-dithiin] | 2 mg/L (≈ 11.3 µM) | 1.6 mg/L (≈ 9.08 µM) | 16 mg/L (≈ 90.8 µM) | 6.3 mg/L (≈ 35.7 µM) | 16 mg/L (≈ 90.8 µM) | 25 mg/L (≈ 142 µM) | 63 mg/L (≈ 357 µM) | In vitro antifungal activity (in words) (fungi): potent broad spectrum antifungal activity; MIC [4]: 16 mg/L (≈ 90.8 µM); MIC [6]: 31 mg/L (≈ 176 µM) |
| CC(=O)OCC1=CC=C(COC(C)=O)SS1 [Dithiin B, 3,6-Bis(acetyloxymethyl)-1,2-dithiin] | 0.8 mg/L (≈ 3.07 µM) | 0.8 mg/L (≈ 3.07 µM) | 0.4 mg/L (≈ 1.54 µM) | 0.2 mg/L (≈ 0.768 µM) | 3.1 mg/L (≈ 11.9 µM) | 3.1 mg/L (≈ 11.9 µM) | 6.3 mg/L (≈ 24.2 µM) | – |
| CC1=CC=C(CO)SS1 [Dithiin C] | – | – | – | – | 12.5 mg/L (≈ 78 µM) | – | – | – |
| COCOCC1=CC=C(COCOC)SS1 [Dithiin D] | 8 mg/L (≈ 30.3 µM) | – | 63 mg/L (≈ 238 µM) | – | 31 mg/L (≈ 117 µM) | – | > 250 mg/L | MFC [7]: 125 mg/L (≈ 473 µM); MIC [4]: 8 mg/L (≈ 30.3 µM); MIC [6]: 125 mg/L (≈ 473 µM) |
| O=CC1=CC=C(C=O)SS1 [Dithiin E, 3,6-Diformyl-1,2-dithiin] | 4 mg/L (≈ 23.2 µM) | – | 8 mg/L (≈ 46.4 µM) | – | 8 mg/L (≈ 46.4 µM) | – | 8 mg/L (≈ 46.4 µM) | MFC [7]: 8 mg/L (≈ 46.4 µM); MIC [4]: 4 mg/L (≈ 23.2 µM); MIC [6]: 8 mg/L (≈ 46.4 µM) |
| CCC(=O)OCC1=CC=C(COC(=O)CC)SS1 [Dithiin G, 3,6-Bis(propionyloxymethyl)-1,2-dithiin] | – | 6.3 mg/L (≈ 21.8 µM) | – | 3.1 mg/L (≈ 10.7 µM) | – | 12.5 mg/L (≈ 43.3 µM) | – | – |
| CC(C)C(=O)OCC1=CC=C(COC(=O)C(C)C)SS1 [Dithiin H, 3,6-Bis(isobutyryloxymethyl)-1,2-Dithiin] | – | > 100 mg/L | – | > 100 mg/L | – | > 100 mg/L | – | – |
| O=C(OCC1=CC=C(COC(=O)C2CC2)SS1)C1CC1 [Dithiin I, 3,6-Bis(cyolopropanecarbonyloxymethyl)-1,2-dithiin] | – | 3.1 mg/L (≈ 9.92 µM) | – | 1.6 mg/L (≈ 5.12 µM) | – | 6.3 mg/L (≈ 20.2 µM) | – | – |
| O=C(OCC1=CC=C(CO)SS1)C1CC1 [Dithiin J] | – | 1.6 mg/L (≈ 6.55 µM) | – | 0.8 mg/L (≈ 3.27 µM) | – | 3.1 mg/L (≈ 12.7 µM) | – | – |
| C=CC#CC#CC1=CC=C(C#CC)SS1 [Thia A, thiarubrine A] | – | – | – | – | – | – | – | MIC ([1]; read-out: MIC C. neoformans, Table 1a, Sabouraud's broth, 30° C.): 0.61 mg/L (≈ 2.67 µM); MIC ([1]; read-out: MIC C. neoformans, Table 1b, Sabouraud's broth, 30° C.): 0.78 mg/L (≈ 3.42 µM); Systemic toxicity (in words) (ICR mice): highly toxic; LD50 at 336 h ([8]; three consecutive days, 14 day observation, read-out: LD50): 0.6 mg/kg; LD50 at 336 h ([8]; total dose over three days, read-out: LD50, total dose): ~1.8 mg/kg; MIC ([2]; read-out: MIC A. fumigatus, Table 1a, Sabouraud's broth, 30° C.): 0.15 mg/L (≈ 0.657 µM); MIC ([2]; read-out: MIC A. fumigatus, Table 1b, Sabouraud's broth, 30° C.): 0.1 mg/L (≈ 0.438 µM); Dermal irritation and erythema ([9]; five days): pronounced toxicity; Average score for dermal irritation, treated ear, Day 3 ([9]; Day 3, scale 1 to 15): 7; Average score for dermal irritation, treated ear, Day 4 ([9]; Day 4, scale 1 to 15): 9; Average score for dermal irritation, treated ear, Day 5 ([9]; Day 5, scale 1 to 15, control ear 4): 9; Average score for dermal irritation, treated ear, Day 2 ([9]; first column pair of Table 2, headed Day 2, scale 1 to 15): 4; Average score for dermal irritation, treated ear, Day 2 ([9]; second column pair of Table 2, headed Day 2, scale 1 to 15): 6; MIC ([3]; read-out: MIC C. albicans 10259, Table 1a, Sabouraud's broth, 30° C.): 0.15 mg/L (≈ 0.657 µM); MIC ([3]; read-out: MIC C. albicans 10259, Table 1b, Sabouraud's broth, 30° C.): 0.39 mg/L (≈ 1.71 µM); Biological activity (in words) [10]: wide spectrum of biological activity including antiviral and antibiotic activities; MFC [5]: 0.3 mg/L (≈ 1.31 µM) |
| C=CC#CC1=CC=C(C#CC#CC)SS1 [thiarubrine B] | – | – | – | – | – | – | – | Biological activity (in words) [10]: wide spectrum of biological activity including antiviral and antibiotic activities |
